Data from patent US6803457B1, “Compounds for the treatment of ischemia” (Pfizer, Inc., priority 1999, dated 2004).

| melting point [°C] | Compound |
| --- | --- |
| 78 to 81 | CNC(=O)[C@H]1O[C@@H](n2cnc3c(NCc4cc(Cl)ccc4OCc4ccc(CN(C)C)o4)ncnc32)[C@H](O)[C@@H]1N [Example 26, (2S,3S,4R,5R)3-Amino-5-{6-[5-chloro-2-(5-dimethylaminomethylfuran-2-ylmethoxy)benzylamino]purin-9-yl}-4-hydroxytetrahydrofuran-2-carboxylic acid methylamide] |
| 208 to 209 | CNC(=O)[C@H]1O[C@@H](n2cnc3c(NCc4cc(Cl)ccc4OCc4nccs4)ncnc32)[C@H](O)[C@@H]1N [Example 27, (2S,3S,4R,5R)3-Amino-5-{6-[5-chloro-2-(thiazol-2-ylmethoxy)-benzylamino]-purin-9-yl}-4-hydroxy-tetrahydro-furan-2-carboxylic acid methylamide] |
| 127 to 129 | CNC(=O)[C@H]1O[C@@H](n2cnc3c(NCc4cc(Cl)ccc4OCc4nc5ccccc5s4)ncnc32)[C@H](O)[C@@H]1N [Example 28, (2S,3S,4R,5R)3-Amino-5-{6-[2-(benzothiazol-2-ylmethoxy)-5-chlorobenzylamino]purin-9-yl}-4-hydroxytetrahydrofuran-2-carboxylic acid methylamide] |
| 127 to 130 | CNC(=O)[C@H]1O[C@@H](n2cnc3c(NCc4cc(Cl)ccc4OCc4cc5ccccc5o4)ncnc32)[C@H](O)[C@@H]1N [Example 29, (2S,3S,4R,5R)3-Amino-5-{6-[2-(benzofuran-2-ylmethoxy)-5-chlorobenzylamino]purin-9-yl}-4-hydroxytetrahydrofuran-2-carboxylic acid methylamide] |
| 180 to 183 | CNC(=O)[C@H]1O[C@@H](n2cnc3c(NCc4cc(Cl)ccc4OCc4ccns4)ncnc32)[C@H](O)[C@@H]1N [Example 30, (2S,3S,4R,5R)3-Amino-5-{6-[5-chloro-2-(isothiazol-5-ylmethoxy)benzylamino]purin-9-yl}-4-hydroxytetrahydrofuran-2-carboxylic acid methylamide] |
| 135 to 141 | CNC(=O)[C@H]1O[C@@H](n2cnc3c(NCc4cc(Cl)ccc4OCc4cccs4)ncnc32)[C@H](O)[C@@H]1N [Example 31, (2S,3S,4R,5R)3-Amino-5-{6-[5-chloro-2-(thiophen-2-ylmethoxy)benzylamino]purin-9-yl}-4-hydroxytetrahydrofuran-2-carboxylic acid methylamide] |
| 130 to 134 | CNC(=O)[C@H]1O[C@@H](n2cnc3c(NCc4cc(Cl)ccc4OCc4ccc5ccccc5n4)ncnc32)[C@H](O)[C@@H]1N [Example 32, (2S,3S,4R,5R)3-Amino-5-{6-[5-chloro-2-(quinolin-2-ylmethoxy)benzylamino]purin-9-yl}-4-hydroxytetrahydrofuran-2-carboxylic acid methylamide] |
| 107 to 110 | CNC(=O)[C@H]1O[C@@H](n2cnc3c(NCc4cc(Cl)ccc4OCc4snnc4C)ncnc32)[C@H](O)[C@@H]1N [Example 33, (2S,3S,4R,5R)3-Amino-5-{6-[5-chloro-2-(4-methyl-[1,2,3]thiadiazol-5-ylmethoxy)benzylamino]purin-9-yl}-4-hydroxytetrahydrofuran-2-carboxylic acid methylamide] |
